The text below walks through data of patent EP3442964B1, “NOVEL N-[(PYRIMIDINYLAMINO)PROPANYL]-AND N [(PYRAZINYLAMINO)PROPANYL]ARYLCARBOXAMIDES” (Boehringer Ingelheim International GmbH, priority 2016, dated 2017).

A short description of data set [1]: Assay C: metabolic stability in human liver microsomes (human MST). Format: in vitro ADME. To be noted: pooled human liver microsomes, pH 7.6, 1 µM test compound, 37°C. The text has this:
Stability in human liver microsomes refers to the susceptibility of compounds to biotransformation in the context of selecting and/or designing drugs with favorable pharmacokinetic properties. The primary site of metabolism for many drugs is the liver. Human liver microsomes contain the cytochrome P450s (CYPs), and thus represent a model system for studying drug metabolization in vitro. Enhanced stability in human liver microsomes is associated with several advantages, including increased bioavailability and longer half-life, which can enable lower and less frequent dosing of patients. Thus, enhanced stability in human liver microsomes is a favorable characteristic for compounds that are to be used for drugs.
The metabolic stability of the compounds according to the invention may be investigated as follows: The metabolic degradation of the test compound is assayed at 37°C with pooled human liver microsomes. The final incubation volume of 100 µL per time point contains TRIS buffer pH 7.6 at room temperature (0.1 M), MgCl2 (5 mM), microsomal protein (1 mg/mL) and the test compound at a final concentration of 1 µM. Following a short pre-incubation period at 37°C , the reactions are initiated by addition of beta-nicotinamide adenine dinucleotide phosphate, reduced form (NADPH, 1 mM), and terminated by transferring an aliquot into solvent after different time points. After centrifugation (10000 g, 5 min), an aliquot of the supernatant is assayed by LC-MS/MS for the amount of parent compound. The half-life (t1/2) is determined by the slope of the semi-logarithmic plot of the concentration-time profile.

Data set [2] deals with T1, OX2R (Homo sapiens, UniProt O43614).
T1 sequence (O43614 1-444): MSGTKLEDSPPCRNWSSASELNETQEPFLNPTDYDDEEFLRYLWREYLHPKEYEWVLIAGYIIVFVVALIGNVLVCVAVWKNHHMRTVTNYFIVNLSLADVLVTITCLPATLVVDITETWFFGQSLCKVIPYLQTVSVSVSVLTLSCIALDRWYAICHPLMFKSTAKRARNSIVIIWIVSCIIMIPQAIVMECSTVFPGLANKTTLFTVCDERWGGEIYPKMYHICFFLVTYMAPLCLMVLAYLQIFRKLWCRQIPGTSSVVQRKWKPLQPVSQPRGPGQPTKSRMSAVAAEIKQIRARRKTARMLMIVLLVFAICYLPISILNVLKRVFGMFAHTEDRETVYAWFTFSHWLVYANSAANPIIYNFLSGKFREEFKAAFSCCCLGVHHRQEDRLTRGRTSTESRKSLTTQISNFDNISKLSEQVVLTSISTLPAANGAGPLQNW
To be noted: as described in WO2013/187466; agonist 3 nM modified orexin A; cited from earlier work.

Data set [3] concerns the target T2, OX1R (Homo sapiens, UniProt O43613).
T2 sequence (O43613 1-425): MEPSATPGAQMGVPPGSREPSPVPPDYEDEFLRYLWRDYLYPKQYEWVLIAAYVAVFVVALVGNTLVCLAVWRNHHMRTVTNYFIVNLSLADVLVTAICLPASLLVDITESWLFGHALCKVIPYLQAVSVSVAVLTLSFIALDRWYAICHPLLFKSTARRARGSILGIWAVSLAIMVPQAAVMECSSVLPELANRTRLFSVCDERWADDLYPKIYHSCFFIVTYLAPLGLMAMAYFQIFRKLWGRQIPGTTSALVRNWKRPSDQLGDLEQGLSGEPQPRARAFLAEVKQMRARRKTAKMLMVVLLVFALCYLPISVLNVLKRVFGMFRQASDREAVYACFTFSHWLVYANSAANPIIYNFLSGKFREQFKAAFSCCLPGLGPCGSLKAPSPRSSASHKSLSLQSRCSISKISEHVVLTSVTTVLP
In words: OX1R assay as described in WO2016/034882.

The target of data set [4] is T2, OX1R. To be noted: cited from earlier work.
The target in data set [5] is T1, OX2R. The settings on record: cited from earlier work.
The target of another data set is T3, human MDR1 P-gp (Homo sapiens, UniProt P08183).
T3 construct: expressed in transfected cells; host or cells: MDCK (MDCK-MDR1)
In words: Assay D: efflux in MDCK cells transfected with the human MDR1 gene. Format: in vitro ADME. To be noted: MDCK-MDR1 monolayers, pH 7.4, 37°C, read-out: Assay D:MDCK efflux ratio (BA/AB). The protocol:
The MDCK assay provides information on the potential of a compound to pass the blood brain barrier. Permeability measurements across polarized, confluent MDCK-MDR1 cell monolayers grown on permeable filter supports are used as an in vitro absorption model: apparent permeability coefficients (PE) of the compounds across the MDCK-MDR1 cell monolayers are measured (pH 7.4, 37°C) in apical-to-basal (AB) and basal-to-apical (BA) transport direction. The AB permeability (PEAB) represents drug absorption from the blood into the brain and the BA permeability (PEBA) drug efflux from the brain back into the blood via both, passive permeability as well as active transport mechanisms mediated by efflux and uptake transporters that are expressed on the MDCK-MDR1 cells, predominantly by the overexpressed human MDR1 P-gp. Identical or similar permeabilities in both transport directions indicate passive permeation, vectorial permeability points to additional active transport mechanisms. Higher PEBA than PEAB (PEBA/PEAB > 5) indicates the involvement of active efflux mediated by MDR1 P-gp, which might compromises the goal to achieve sufficient brain exposure. Therefore this assay provides valuable support for selection of compounds applicable for further in vivo testing. High permeability not limited by efflux at the blood brain barrier is a favourable characteristic for compounds that are to be used for drugs acting primarily in the CNS
Apparent permeability coefficients (PE) of the compounds across the MDCK-MDR1 cell monolayers are measured (pH 7.4, 37°C) in apical-to-basal (AB) and basal-to-apical (BA) transport direction. AB permeability (PEAB) represents drug absorption from the blood into the brain and BA permeability (PEBA) drug efflux from the brain back into the blood via both passive permeability as well as active transport mechanisms mediated by efflux and uptake transporters that are expressed on the MDCK-MDR1 cells, predominantly by the overexpressed human MDR1 P-gp. The compounds are assigned to permeability/absorption classes by comparison of the AB permeabilities with the AB permeabilities of reference compounds with known in vitro permeability and oral absorption in the human. Identical or similar permeabilities in both transport directions indicate passive permeation, vectorial permeability points to additional active transport mechanisms. Higher PEBA than PEAB indicates the involvement of active efflux mediated by MDR1 P-gp. Active transport is concentration- dependently saturable.
MDCK-MDR1 cells (1-2 x 10e5 cells/1 cm2 area) are seeded on filter inserts (Costar transwell polycarbonate or PET filters, 0.4 µm pore size) and cultured (DMEM) for 7 days. Subsequently, the MDR1 expression is boosted by culturing the cells with 5 mM sodium butyrate in full medium for 2 days. Compounds are dissolved in appropriate solvent (like DMSO, 1 -20 mM stock solutions). Stock solutions are diluted with HTP-4 buffer (128.13 mM NaCl, 5.36 mM KCI, 1 mM MgSO4, 1.8 mM CaCl2, 4.17 mM NaHCO3, 1.19 mM Na2HPO4 x 7H2O, 0.41 mM NaH2PO4xH2O, 15 mM HEPES, 20 mM glucose, 0.25 % BSA, pH 7.4) to prepare the transport solutions (0.1 - 300 µM compound, final DMSO <= 0.5 %). The transport solution (TL) is applied to the apical or basolateral donor side for measuring A-B or B-A permeability (3 filter replicates), respectively. The receiver side contains the same buffer as the donor side. Samples are collected at the start and end of experiment from the donor and at various time intervals for up to 2 hours also from the receiver side for concentration measurement by HPLC-MS/MS or scintillation counting. Sampled receiver volumes are replaced with fresh receiver solution.

Another data set deals with T4, human orexin 2 receptor (Homo sapiens, UniProt O43614).
T4 sequence (O43614 1-444): T1 sequence (O43614 1-444)
In kind it is cell-based. The settings on record: 0.5 nM Orexin A. The text has this: Chem. Genomics 2009, 3, 22-32.

Where [6] appears, read: read-out: Assay C: Human MST t1/2.
Where [7] appears, read: corresponds to pIC50 of Table 1 of WO2016/034882.
[8] abbreviates: corresponds to pIC50 of Table 3 of WO2016/034882.
[9] abbreviates: from values of Table 3 of WO2016/034882.

Read-outs that look alike come from different tables or passages of the source.

T3 sequence (P08183 whole entry): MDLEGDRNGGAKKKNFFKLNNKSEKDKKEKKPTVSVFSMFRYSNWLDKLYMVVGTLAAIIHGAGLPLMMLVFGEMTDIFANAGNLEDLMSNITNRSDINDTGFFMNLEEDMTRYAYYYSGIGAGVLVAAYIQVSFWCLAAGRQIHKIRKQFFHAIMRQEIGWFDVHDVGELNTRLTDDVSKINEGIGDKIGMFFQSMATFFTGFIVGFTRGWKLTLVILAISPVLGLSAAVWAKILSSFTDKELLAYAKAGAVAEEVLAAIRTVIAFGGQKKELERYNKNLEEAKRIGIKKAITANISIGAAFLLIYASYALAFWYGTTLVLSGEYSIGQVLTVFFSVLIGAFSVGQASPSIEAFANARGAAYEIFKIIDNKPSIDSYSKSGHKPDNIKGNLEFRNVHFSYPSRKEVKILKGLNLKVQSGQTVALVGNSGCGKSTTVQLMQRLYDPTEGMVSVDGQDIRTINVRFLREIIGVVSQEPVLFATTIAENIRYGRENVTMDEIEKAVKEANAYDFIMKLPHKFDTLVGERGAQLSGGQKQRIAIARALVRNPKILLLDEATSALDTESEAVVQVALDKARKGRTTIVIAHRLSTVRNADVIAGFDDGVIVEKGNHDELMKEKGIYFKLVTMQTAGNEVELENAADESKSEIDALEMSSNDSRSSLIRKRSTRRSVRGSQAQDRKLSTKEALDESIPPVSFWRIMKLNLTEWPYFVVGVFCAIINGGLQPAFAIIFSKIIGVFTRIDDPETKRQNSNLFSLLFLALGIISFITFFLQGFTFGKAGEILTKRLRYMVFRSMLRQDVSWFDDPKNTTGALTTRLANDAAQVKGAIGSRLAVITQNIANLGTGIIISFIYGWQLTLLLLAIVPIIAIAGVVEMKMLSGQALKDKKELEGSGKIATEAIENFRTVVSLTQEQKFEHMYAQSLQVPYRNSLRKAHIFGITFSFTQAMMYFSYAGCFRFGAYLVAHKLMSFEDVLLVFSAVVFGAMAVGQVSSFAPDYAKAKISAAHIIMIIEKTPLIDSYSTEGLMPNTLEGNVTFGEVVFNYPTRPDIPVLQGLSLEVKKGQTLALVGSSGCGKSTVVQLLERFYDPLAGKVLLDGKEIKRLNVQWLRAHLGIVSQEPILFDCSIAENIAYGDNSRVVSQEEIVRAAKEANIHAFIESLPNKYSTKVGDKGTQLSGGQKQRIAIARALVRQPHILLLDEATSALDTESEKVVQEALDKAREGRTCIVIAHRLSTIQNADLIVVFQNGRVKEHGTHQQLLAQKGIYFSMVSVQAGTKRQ

On to `C[C@@H](Cn1ccc(-c2ccc(F)cn2)n1)N(C)C(=O)c1cc(F)ccc1-c1ncccn1` [Example 5 in WO2013/187466, reference compound], for which, in data set [1] (read-out: Data as determined in Assay C: Human MST t1/2), the half-life at 1 µM was found to be 30 min. Besides, on OX2R [2], the concentration for half-maximal inhibition (IC50) is 0.076 µM.

For the compound `CC[C@@H](CNc1cnc(C(F)(F)F)cn1)N(C)C(=O)c1cc(Cl)ccc1-n1nccn1` [Example 40 in WO2016/034882], in data set [1] (setting [6]), the half-life at 1 µM amounted to 9 min. Also, the “OX2R IC50/OX1R IC50” value at OX1R [3] (from values of Table 1 of WO2016/034882) is “Table 1: 156”. In addition, the half-inhibitory concentration (IC50) on OX1R [4] (setting [7]) was 0.016 µM; at OX2R [5] (setting [7]) it was 2.5 µM. Besides, the efflux ratio on human MDR1 P-gp was < 3.

`CC[C@@H](CNc1ncc(C(F)(F)F)cn1)N(C)C(=O)c1nc(C)ccc1-n1nccn1` [Example 46 in WO2016/034882]: in data set [1] (setting [6]), the half-life at 1 µM came to 32 min. In addition, the values for the half-maximal inhibitory concentration (IC50) at OX1R [4] (setting [7]), at OX2R [5] (corresponds to pIC50 of Table 2 of WO2016/034882) and at OX2R [5] (setting [8]) were 0.02 µM, > 10 µM and ≥ 10 µM, respectively. Further, the “OX2R pIC50” value on OX2R [5] (Table 1 of WO2016/034882) was 5.1; at OX2R [5] (Table 2 of WO2016/034882), < 5.0; on OX2R [5] (Table 3 of WO2016/034882), < 5.0. For the same compound, the efflux ratio at human MDR1 P-gp is < 3.

For the compound `CC[C@@H](CNc1ncc(C(F)(F)F)cn1)N(C)C(=O)c1nc(C)ccc1-n1cccn1` [Example 90 in WO2016/034882], in data set [1] (setting [6]), the half-life at 1 µM amounted to 26 min. Moreover, the “OX2R IC50/OX1R IC50” value on OX1R [3] (setting [9]) is reported as “Table 3: >526”. Further, the IC50 at OX1R [4] (setting [8]) was 0.0019 µM; at OX2R [5] (setting [8]), > 1 µM. For the same compound, the “OX2R pIC50” value at OX2R [5] (Table 3 of WO2016/034882) was < 6.0. The efflux ratio on human MDR1 P-gp is < 3. The Kb on human orexin 2 receptor turned out to be 0.974 µM.

For `CC[C@@H](CNc1ncc(C(F)(F)F)cn1)N(C)C(=O)c1c(F)cccc1-n1nccn1` [Example 91 in WO2016/034882], the half-life at 1 µM in data set [1] (setting [6]) was > 120 min. In addition, on OX1R [3] (setting [9]), the “OX2R IC50/OX1R IC50” value is listed as “Table 3: 318”. Further, the half-maximal inhibitory concentration (IC50) is 0.025 µM at OX1R [4] (setting [8]) and ≥ 7.95 µM at OX2R [5] (setting [8]). On OX2R [5] (Table 3 of WO2016/034882), the “OX2R pIC50” value was < 5.1. In addition, at human MDR1 P-gp, the efflux ratio is < 3.
